# Columns and labels:
# [1] = tested on: Alternaria alternata; assay: Determination of MIC (microtitre doubling dilution), fungi; assay type: cell-based; settings: chemical alone; visual growth after 48 hours at 25° C.
# Experimental: (§1) Bacteria were grown to stationary phase (18 hours) in nutrient broth to give approximately 10^9 colony forming units per ml (CFU/ml). A 0.1% (v/v) inoculum was used to seed fresh medium and 100 μl was then added to each well of a microtitre plate, except for the first well which contained 200 μl. By using a doubling dilution technique, the concentration of the chemical under investigation was varied in each well along the ordinate axis. The presence or absence of bacterial growth was determined by visual inspection after 24 hours incubation at 37° C.
# (§2) The presence or absence of fungal growth was determined by visual inspection after incubation for 48 hours at 25° C.
# [2] = tested on: Aspergillus niger; assay: as above; assay type: cell-based; settings: chemical alone; visual growth after 48 hours at 25° C.
# Experimental: as §1, §2
# [3] = tested on: Aureobasidium pullulans; assay: as above; assay type: cell-based; settings: chemical alone; visual growth after 48 hours at 25° C.
# Experimental: as §1, §2
# [4] = tested on: Pseudomonas aeruginosa; assay: Determination of MIC (microtitre doubling dilution), bacteria; assay type: cell-based; settings: chemical alone; visual growth after 24 hours at 37° C.
# Experimental: as §1
# [5] = tested on: Aspergillus niger; assay: Determination of FIC (10x10 matrix, isobologram); assay type: cell-based; settings: for concentration in the optimal composition: component of the combination BBIT + ZHMT; for Optimal FIC Concentration: component of the combination BBIT + ZO
# Excerpt: (§3) The composition of the present invention has antimicrobial properties and has been found particularly effective against deteriogens for plastics materials, especially in soil burial applications. […] The FIC is the ratio of the amount of each component in the composition relative to its Minimum Inhibitory Concentration (MIC) when used alone. […] When the sum of the FIC values is below one, the mixture is synergistic and when the sum of the FIC values is greater than one, the mixture is antagonistic. The FIC values are preferably determined by constructing an isobologram wherein each component in a matrix array is varied stepwise from a concentration in excess of the MIC down to zero ppm.
# (§4) A matrix was constructed in a 10×10 array in microtitre wells wherein the concentration of each chemical was varied stepwise by serial dilution from a concentration of twice the MIC down to zero. As each microtitre plate contains only 96 wells the combination of the two compounds making up the extreme concentrations (highest and lowest) were omitted. Each mixture (100 μl) was added to the plate so that the total volume was maintained at 200 μl. By transferring 100 μl from each well to the adjacent well containing 100 μl nutrient the concentration of the chemical was reduced from twice the MIC to zero in a stepwise manner.
# (§5) The presence or absence of growth was determined visually after incubation. The plates containing bacteria were incubated for 16-24 hours at 37° C. and the plates containing fungi were incubated for 40-72 hours at 25° C. From the matrix an isobologram was created and the FIC for each chemical of the composition calculated. The FIC is the ratio of the concentration of chemical which inhibits growth when applied as a combination of chemicals relative to the MIC for that chemical when applied alone.
# (§6) The FIC values for the combination of N-n-butyl-1,2-benzisothiazolin-3-one (BBIT) and the 2:1 zinc complex of 3-hydroxy-4-methylthiazol-2(3H)-thione against a bacterium and a fungus are recorded in Tables 2 and 3, respectively.
# (§7) The FIC values for N-n-butyl-1,2-benzisothiazolin-3-one and the 2:1 zinc complex of 1-hydroxypyridine-2-thione were determined in similar manner to that described in Example 1.
# [6] = tested on: Pseudomonas aeruginosa; assay: Determination of FIC (10x10 matrix, isobologram); assay type: cell-based; settings: for concentration in the optimal composition: component of the combination BBIT + ZHMT; for Optimal FIC Concentration: component of the combination BBIT + ZO
# Excerpt: as §3, §4, §5, §6, §7
# [7] = tested on: Alternaria alternata; assay: Determination of FIC (10x10 matrix, isobologram); assay type: cell-based; settings: component of the combination BBIT + ZO
# Excerpt: as §3
# A matrix was constructed in a 10×10 array in microtitre wells wherein the concentration of each chemical was varied stepwise by serial dilution from a concentration of twice the MIC down to zero. As each microtitre plate contains only 96 wells the combination of the two compounds making up the extreme concentrations (highest and lowest) were omitted. […]
# The presence or absence of growth was determined visually after incubation. […] From the matrix an isobologram was created and the FIC for each chemical of the composition calculated. […]
# as §7
# [8] = tested on: mixed inoculum of Aureobasidium pullulans, Fusarium enicillium funicularum, Scopulariopsis brevicaulis and Streptoverticillium waksmanii; assay: Soil burial of plasticised PVC strips, weight loss; settings: PVC strip, 3000 ppm
# Experimental: Polvinylchioride sheets were prepared by callendaring the following mixture at 160° C.
# 100 parts Polyvinylchloride (Evipol SH65/20 ex EVC)
# 25 parts Dioctylphthalate (ex BP Chemicals)
# 25 parts Dioctyladipate (ex BP Chemicals)
# 2 parts Mixed Ca/Zn salt Lankromark LN138 as stabiliser (ex Lankro Chem)
# 3 parts Lankroflex ED6 as stabiliser/plasticiser (ex Lankro Chem)
# 5 parts Calcium stearate (ex Aldrich)
# 0.2 parts Stearic acid (ex Aldrich)
# Sheets were fabricated with and without a 1:1 mixture of N-n-butyl-1,2-benzisothiazolin 3-one (BBIT) and the 2:1 zinc complex of 1-hydroxypyridine-2-thione (ZO). […]
# Strips of the PVC (8 parts, 12.5×5 cm) were weighed to 4 decimal places, folded and buried in potting compost (John Innes No 2) in a plastic humidity chamber. The compost was sprayed with a mixed inoculum of Aureobasidium pullulans, Fusarium enicillium funicularum, Scopulariopsis brevicaulis and Streptoverticillium waksmanii and incubated at 25° C. The PVC strips were examined at 4 weeks intervals when they were cleaned, dried and weighed. The weight loss is recorded in Table 5 below.
MIC [2] [ppm],MIC [4] [ppm],Compound,MIC [1] [ppm],MIC [3] [ppm],concentration in the optimal composition [5] [ppm],Optimal FIC Concentration [5] [ppm],concentration in the optimal composition [6] [ppm],Optimal FIC Concentration [6] [ppm],Optimal FIC Concentration [7] [ppm],Weight Loss ([8]; 0 weeks) [%],Weight Loss ([8]; 4 weeks) [%],Weight Loss ([8]; 8 weeks) [%],Weight Loss ([8]; 12 weeks) [%],Weight Loss ([8]; 16 weeks) [%]
16,16,"Cc1csc(=S)n1[O-].Cc1csc(=S)n1[O-].[Zn+2] [ZHMT, 2:1 zinc complex of 3-hydroxy-4-methylthiazol-2(3H)-thione]",,,5.9,,10.6,,,,,,,
11,33.5,"[O-]n1ccccc1=S.[O-]n1ccccc1=S.[Zn+2] [ZO, 2:1 zinc complex of 1-hydroxypyridine-2-thione]",55,1.5,,8.3,,16.4,22,0,0.3,0.8,1.5,2.3

Compound,MIC [2] [ppm],MIC [4] [ppm],MIC [1] [ppm],MIC [3] [ppm],concentration in the optimal composition [5] [ppm],Optimal FIC Concentration [5] [ppm],concentration in the optimal composition [6] [ppm],Optimal FIC Concentration [6] [ppm],Optimal FIC Concentration [7] [ppm],Weight Loss ([8]; 0 weeks) [%],Weight Loss ([8]; 4 weeks) [%],Weight Loss ([8]; 8 weeks) [%],Weight Loss ([8]; 12 weeks) [%],Weight Loss ([8]; 16 weeks) [%]
"CCCCn1sc2ccccc2c1=O [BBIT, N-n-butyl-1,2-benzisothiazolin-3-one]",44.5,444,67,3,17.4,5.3,111,111,22,0,1.2,2.8,5.6,8.1
